Read-outs that look alike come from different tables or passages of the source.
Tests used:
[1] = target: T1, MOR (Homo sapiens, UniProt P35372); experiment: cell-based; conditions: for Emax: read-out: Emax for G-protein activation
Method: The G-protein pathway activation was performed as previously described.[40] Briefly, the G-protein pathway activation was measured using HitHunter cAMP assays, which quantify cAMP, a secondary messenger involved in G-protein-coupled receptor (GPCR) signaling. This assay employed Enzyme Fragment Complementation (EFC) technology with β-galactosidase (β-Gal) as the reporter enzyme. Upon activation, β-Gal produces a chemiluminescent signal that is detected using a microplate reader, providing a quantitative measure of G-protein pathway activity.

[2] = target: T1, MOR; experiment: cell-based; conditions: for Emax: read-out: Emax for β-arrestin recruitment
Method: The β-Arrestin recruitment assay was performed as previously described.[41] Briefly, the PathHunter β-Arrestin assay was used to monitor GPCR activation through β-arrestin recruitment. This assay also utilized EFC technology, with β-Gal as the reporter enzyme. In this system, the Enzyme Acceptor (EA) fragment was fused to β-arrestin, and the ProLink (PK) fragment was fused to the GPCR of interest. Upon GPCR activation, EA and PK complementation restored β-Gal activity, generating a chemiluminescent signal that was measured using PathHunter Detection Reagents.

[3] = design: method as in doi:10.3390/scipharm88020025, PMID 17435173, PMID 24712707; conditions: water or methanol, cited from earlier work
[4] = system: nonactivated THP-1 cells; experiment: Inflammatory cytokine assay, nonactivated THP-1 cells (ELISA); conditions: 24 h
[5] = system: LPS-activated THP-1 cells; experiment: Inflammatory cytokine assay, LPS-activated THP-1 cells (ELISA); conditions: LPS 0.1 μg/mL, 24 h, three concentrations
Method: This assay evaluated the impact of various compounds on cytokine production in THP1 cells stimulated with LPS, as previously described with some modifications.[35] Following treatment, key cytokines were measured to enhance our understanding of the modulatory effects of these compounds on inflammation.
The cells were cultured for 24 h at 37 °C and 5% CO2. After the culture period, the cell free supernatants were harvested and stored at −80 °C until cytokine measurement.
The cytokines IL-1beta, IL-6 and TNF were measured using an ELISA Development Kit (R&D, biotechne, Wiesbaden, Germany) according to the recommendations of the manufacturer.

[6] = target: T2, MOR expressed in human embryonic kidney 293 (HEK-293) cells (Homo sapiens, UniProt P35372); experiment: In vitro radioligand competition binding assay against [3H]DAMGO (Eurofins)
T2 construct: host or cells: HEK-293
T2 sequence (P35372 whole entry): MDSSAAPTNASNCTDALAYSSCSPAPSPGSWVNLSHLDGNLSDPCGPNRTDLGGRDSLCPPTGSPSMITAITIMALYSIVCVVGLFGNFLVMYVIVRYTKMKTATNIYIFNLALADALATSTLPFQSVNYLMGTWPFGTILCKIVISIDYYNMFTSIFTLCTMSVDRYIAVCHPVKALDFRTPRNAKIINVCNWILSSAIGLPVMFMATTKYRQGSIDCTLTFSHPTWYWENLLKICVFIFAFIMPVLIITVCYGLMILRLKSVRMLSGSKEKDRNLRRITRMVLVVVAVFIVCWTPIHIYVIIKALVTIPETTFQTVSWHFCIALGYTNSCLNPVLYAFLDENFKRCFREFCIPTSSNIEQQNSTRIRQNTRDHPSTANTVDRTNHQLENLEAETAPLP
Method: The Ki values were determined from the measured IC50 values using the Cheng-Prusoff equation,[39] Ki = IC50/[1 + ([L]/Kd)], where [L] and Kd are the concentration and binding affinity of the radiolabeled ligand in the assay, respectively.

[7] = compared with the reported EC50 of morphine

T1 sequence (P35372 whole entry, the tested form may be a part): as the sequence (P35372 whole entry) above

Structure (SMILES)	Emax [1]	Emax [2]	hydrolysis to 4-methylaminoantipyrine (4-MAA) ([3]; acidic conditions)	hydrolysis to 4-methylaminoantipyrine (4-MAA) ([3]; neutral pH)	induction of pro-inflammatory cytokines (TNF, IL-1beta, IL-6) [4]	effect on LPS-induced TNF release [5]	fold less potent against MOR than morphine (Ki) ([6]; compared with the reported Ki of morphine)	IC50 ([6]; read-out: half-maximal inhibitory concentration (IC50), MOR binding)	Ki ([6]; read-out: inhibitory constant (Ki), MOR binding)	fold difference to morphine, G-protein activation [1, 7]	fold difference to morphine, β-arrestin recruitment [2, 7]
COc1ccsc1CNCC[C@@]1(c2ccccn2)CCOC2(CCCC2)C1 [TRV-130, oliceridine, reference compound]	100%	7.9%									
Cc1c(N(C)CS(=O)(=O)O)c(=O)n(-c2ccccc2)n1C [metamizole, metamizole sodium]			more rapidly	slowly	did not see any induction	dose-dependent and significant upregulation					
Cc1c(N(C)Cc2cc3c4c(c2O)O[C@H]2[C@@H](O)C=C[C@H]5[C@@H](C3)N(C)CC[C@@]452)c(=O)n(-c2ccccc2)n1C [metamorphine]	97%	70%			did not see any induction	no significant effect	about 8 fold	7.3 nM	3 nM	22 fold	8 fold
CN1CC[C@]23c4c5ccc(O)c4O[C@H]2[C@@H](O)C=C[C@H]3[C@H]1C5 [morphine]					did not see any induction	no significant effect					

From publication PMC11915030 (ACS Pharmacology & Translational Science, 2025)
